Test results published in patent US20240109917A1 (ACTELION PHARMACEUTICALS LTD, priority 2020, published 2024).
Like-named read-outs stand apart in the source and are kept apart here.

Columns and labels:
[1] = biological target: His6-TEV-PDGFRβ (557-1016) (Homo sapiens (Human), UniProt P09619); assay: PDGFRβ HTRF Assay; assay type: biochemical; details: read-out: PDGFR HTRF IC50
Method in brief: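 Human PDGFRβ (557-1016) pre-incubated with compound for 30 min at RT in pH 7.5 HEPES/MgCl2/EGTA/Brij-35/DTT buffer. Reaction started with ATP and TK-biotin peptide, run 3 h at RT, then quenched with EDTA-containing Eu-cryptate antibody/streptavidin-XL665. HTRF 665/620 nm ratio read after 60 min; percent inhibition relative to DMSO and 10 μM imatinib controls.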

PDGFRβ = PDGFRβ (Rattus norvegicus (Rat), UniProt Q05030); assay: PDGFRβ Cellular Assay (PDGFRb P-Y751 HTRF in A10 cells stimulated with PDGF-BB); assay type: cell-based
Sequence of PDGFRβ (Q05030 32-1097): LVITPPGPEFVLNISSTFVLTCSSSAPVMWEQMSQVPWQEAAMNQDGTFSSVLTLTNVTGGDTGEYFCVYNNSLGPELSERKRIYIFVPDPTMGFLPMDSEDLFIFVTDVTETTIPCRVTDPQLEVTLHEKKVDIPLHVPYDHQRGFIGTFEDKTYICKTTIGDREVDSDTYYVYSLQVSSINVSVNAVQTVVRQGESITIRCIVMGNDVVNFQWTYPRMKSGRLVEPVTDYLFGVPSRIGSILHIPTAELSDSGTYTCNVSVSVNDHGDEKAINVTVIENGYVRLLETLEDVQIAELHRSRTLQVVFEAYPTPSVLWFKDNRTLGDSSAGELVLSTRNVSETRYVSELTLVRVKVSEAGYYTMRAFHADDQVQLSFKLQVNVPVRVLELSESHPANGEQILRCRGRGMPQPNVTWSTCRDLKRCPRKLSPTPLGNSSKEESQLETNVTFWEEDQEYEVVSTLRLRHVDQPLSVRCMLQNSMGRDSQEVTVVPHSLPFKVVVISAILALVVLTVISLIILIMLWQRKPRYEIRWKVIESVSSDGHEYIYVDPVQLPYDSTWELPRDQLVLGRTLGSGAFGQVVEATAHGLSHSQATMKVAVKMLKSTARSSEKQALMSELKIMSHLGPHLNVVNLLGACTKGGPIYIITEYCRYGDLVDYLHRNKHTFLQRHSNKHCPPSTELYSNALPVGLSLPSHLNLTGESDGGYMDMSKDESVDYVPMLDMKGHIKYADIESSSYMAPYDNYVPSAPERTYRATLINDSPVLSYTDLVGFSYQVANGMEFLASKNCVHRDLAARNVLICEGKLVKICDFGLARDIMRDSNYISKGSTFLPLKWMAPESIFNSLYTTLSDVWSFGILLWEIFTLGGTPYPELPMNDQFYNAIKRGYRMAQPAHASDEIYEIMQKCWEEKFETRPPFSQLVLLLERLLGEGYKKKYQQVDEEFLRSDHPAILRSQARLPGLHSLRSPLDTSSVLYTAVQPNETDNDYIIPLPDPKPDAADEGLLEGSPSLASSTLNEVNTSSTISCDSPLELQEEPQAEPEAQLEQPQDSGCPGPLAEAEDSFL
Method in brief: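 Rat A10 cells, plated overnight, were treated with compound for 3 hours, then stimulated with PDGF-BB (working stock 100 ng/mL in 10% FBS medium). After lysis, PDGFRβ P-Y751 was detected by HTRF.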

Sequence of His6-TEV-PDGFRβ (557-1016) (P09619 557-1016): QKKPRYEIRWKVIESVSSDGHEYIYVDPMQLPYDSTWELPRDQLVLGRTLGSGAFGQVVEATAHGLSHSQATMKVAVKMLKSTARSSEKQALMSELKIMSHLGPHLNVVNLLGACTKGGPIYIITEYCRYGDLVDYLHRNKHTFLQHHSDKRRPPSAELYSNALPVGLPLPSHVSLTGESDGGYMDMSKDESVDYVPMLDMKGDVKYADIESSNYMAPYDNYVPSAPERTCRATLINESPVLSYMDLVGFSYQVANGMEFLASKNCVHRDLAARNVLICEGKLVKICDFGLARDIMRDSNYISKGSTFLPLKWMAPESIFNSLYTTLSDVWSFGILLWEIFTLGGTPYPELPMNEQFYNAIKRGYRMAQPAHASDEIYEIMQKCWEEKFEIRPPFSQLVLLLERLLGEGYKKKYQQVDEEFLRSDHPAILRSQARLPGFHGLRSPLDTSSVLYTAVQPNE

Structure (SMILES) | IC50 [1] | IC50 (PDGFRβ; read-out: PDGFR Cellular IC50) | IC50 (PDGFRβ; PDGFR Cellular IC50)
COCCn1cc(-c2cn3ncc(C(=O)Nc4cc(NC(=O)CN5CC(C)(C)C5)cnc4C)c3s2)cn1 [Example 261, N-(5-(2-(3,3-dimethylazetidin-1-yl)acetamido)-2-methylpyridin-3-yl)-2-(1-(2-methoxyethyl)-1H-pyrazol-4-yl)pyrazolo[5,1-b]thiazole-7-carboxamide] | 0.4 nM | 4.2 nM | 
Cc1ncc(NC(=O)CN2CC(C)(C)C2)cc1NC(=O)c1cnn2cc(-c3ccn(S(C)(=O)=O)c3)sc12 [Example 275, N-(5-(2-(3,3-dimethylazetidin-1-yl)acetamido)-2-methylpyridin-3-yl)-2-(1-(methylsulfonyl)-1H-pyrrol-3-yl)pyrazolo[5,1-b]thiazole-7-carboxamide] | 0.2 nM |  | 7.6 nM
Cc1ncc(NC(=O)CN2CC(C)(C)C2)cc1NC(=O)c1cnn2cc(-c3cnn(CC(F)(F)F)c3)sc12 [Example 268, N-(5-(2-(3,3-dimethylazetidin-1-yl)acetamido)-2-methylpyridin-3-yl)-2-(1-(2,2,2-trifluoroethyl)-1H-pyrazol-4-yl)pyrazolo[5,1-b]thiazole-7-carboxamide] | 0.6 nM | 11.6 nM | 
Cc1ncc(NC(=O)CN2CC(C)(C)C2)cc1NC(=O)c1cnn2cc(-c3ccsc3)sc12 [Example 282, N-(5-(2-(3,3-dimethylazetidin-1-yl)acetamido)-2-methylpyridin-3-yl)-2-(thiophen-3-yl)pyrazolo[5,1-b]thiazole-7-carboxamide] | 0.1 nM | 0.9 nM | 
COc1ncccc1-c1cn2ncc(C(=O)Nc3cc(NC(=O)CN4CCC5(CC5)C4)cnc3C)c2s1 [Example 324, N-(5-(2-(5-azaspiro[2.4]heptan-5-yl)acetamido)-2-methylpyridin-3-yl)-2-(2-methoxypyridin-3-yl)pyrazolo[5,1-b]thiazole-7-carboxamide] | 0.1 nM | 1.1 nM | 
Cc1ncc(NC(=O)CN(C)C2CCOCC2)cc1NC(=O)c1cnn2cc(-c3cnn(C(C)C#N)c3)sc12 (centres unmarked) [Example 297, 2-(1-(1-cyanoethyl)-1H-pyrazol-4-yl)-N-(2-methyl-5-(2-(methyl(tetrahydro-2H-pyran-4-yl)amino)acetamido)pyridin-3-yl)pyrazolo[5,1-b]thiazole-7-carboxamide] | 0.7 nM | 98 nM | 
Cc1ncc(NC(=O)CN2CCCC2)cc1NC(=O)c1cnn2cc(-c3cccnc3O)sc12 [Example 312, 2-(2-hydroxypyridin-3-yl)-N-(2-methyl-5-(2-(pyrrolidin-1-yl)acetamido)pyridin-3-yl)pyrazolo[5,1-b]thiazole-7-carboxamide] | 1.8 nM | 948 nM | 
COc1ncccc1-c1cn2ncc(C(=O)Nc3cc(NC(=O)CN4CCCC5(CC5)C4)cnc3C)c2s1 [Example 321, N-(5-(2-(5-azaspiro[2.5]octan-5-yl)acetamido)-2-methylpyridin-3-yl)-2-(2-methoxypyridin-3-yl)pyrazolo[5,1-b]thiazole-7-carboxamide] | 0.2 nM | 1.2 nM | 
Cc1ncc(NC(=O)CN(C)C2CCOCC2)cc1NC(=O)c1cnn2cc(-c3cnn(CC(N)=O)c3)sc12 [Example 300, 2-(1-(2-amino-2-oxoethyl)-1H-pyrazol-4-yl)-N-(2-methyl-5-(2-(methyl(tetrahydro-2H-pyran-4-yl)amino)acetamido)pyridin-3-yl)pyrazolo[5,1-b]thiazole-7-carboxamide] | 1.2 nM | 1010 nM | 
Cc1ncc(NC(=O)[C@@H]2C[C@H](C)CN2C)cc1NC(=O)c1cnn2cc(-c3cccnc3O)sc12 [Example 316, N-(5-((2S,4S)-1,4-dimethylpyrrolidine-2-carboxamido)-2-methylpyridin-3-yl)-2-(2-hydroxypyridin-3-yl)pyrazolo[5,1-b]thiazole-7-carboxamide] | 1.9 nM | 58.3 nM | 
